Assay results: patent publication US7138361B2, “Herbicidal heterocycles” (E. I. du Pont de Nemours and Company, priority 2000, dated 2006)

Columns and labels:
Type in all cases: in vivo
[1] = system: Monochoria vaginalis (Mv); assay: Test D greenhouse paddy-water test in rice; conditions: 21 days, 0-100 scale
From the text: (§1) Four plastic pots (ca. 16-cm diameter) per rate were partially filled with sterilized Tama silt loam soil comprised of a 35:50:15 ratio of sand, silt and clay and 2.6% organic matter. Separate plantings for each of the four pots were as follows. Seeds from the U.S. of Heteranthera limosa (Hl), Monochoria vaginalis (Mv), Ammania auriculata (Aa), and Sphenoclea zeylanica (Sz) were planted into one 16-cm pot for each rate. Seeds from the U.S. of Cyperus iria (Ci), Leptochloa fascicularis (Li), one stand of 9 or 10 direct-seeded rice seedlings (Oryza saliva cv. ‘Japonica—M202’; Oss), and one stand of 6 transplanted rice seedlings (Oryza sativa cv. ‘Japonica—M202’; Ost) were planted into one 16-cm pot for each rate. Seeds from the U.S. of Cyperus difformis (Cd), Alisma plantago-aquatica (Ap), and Scirpus mucronatus (Sm) were planted into one 16-cm pot for each rate. Seeds from the U.S. of Echinochloa crus-galli (Ecg), Echinochloa oryzicola (Eor), Echinochloa oryzoides (Eoz) and Echinochloa colonum (Ecc) were planted into one 16-cm pot for each rate. Plantings were sequential so that crop and weed species were at the 2.0 to 2.5-leaf stage at time of treatment.
(§2) Potted plants were grown in a greenhouse with day/night temperature settings of 29.5/26.7° C., and supplemental balanced lighting was provided to maintain a 16-hour photoperiod. Test pots were maintained in the greenhouse until test completion.
(§3) Chemical treatments consisting of Compound 1 of Index Table A (Cmpd 1), daimuron (Cmpd D), quinoclamine (Cmpd Q) and combinations thereof were formulated in acetone. At time of treatment, test pots were flooded to 3 cm above the soil surface, treated by application of test compounds directly to the paddy water, and then maintained at that water depth for the duration of the test. Effects of treatments on rice and weeds were visually evaluated by comparison to untreated controls after 21 days. Plant response ratings are reported on a 0 to 100 scale; where 0 is no effect and 100 is complete control. ND means no data.
(§4) Colby's equation was used to calculate the expected additive herbicidal effect of the mixtures of Compound 1 with daimuron (Cmpd D) and quinoclamine (Cmpd Q). Colby's equation (Colby, S. R “Calculating Synergistic and Antagonistic Responses of Herbicide Combinations,” Weeds, 15(1), pp 20–22 (1967)) calculates the expected additive effect of herbicidal mixtures, and for two active ingredients is of the form: Pa+b=Pa+Pb−(PaPb/100) wherein Pa+b is the percentage effect of the mixture expected from additive contribution of the individual components, • Pa is the observed percentage effect of the first active ingredient at the same use rate as in the mixture, and • Pb is the observed percentage effect of the second active ingredient at the same use rate as in the mixture.

[2] = system: Alisma plantago-aquatica (Ap); assay: Test D greenhouse paddy-water test in rice; conditions: 21 days, 0-100 scale
From the text: as §1, §2, §3, §4

[3] = system: direct-seeded rice seedlings (Oryza saliva cv. 'Japonica—M202'; Oss); assay: Test D greenhouse paddy-water test in rice; conditions: 21 days, 0-100 scale
From the text: as §1, §2, §3, §4

Ammania auriculata (Aa) = assay: Test D greenhouse paddy-water test in rice; conditions: 21 days, 0-100 scale
From the text: as §1, §2, §3, §4

[4] = system: transplanted rice seedlings (Oryza sativa cv. 'Japonica—M202'; Ost); assay: Test D greenhouse paddy-water test in rice; conditions: 21 days, 0-100 scale
From the text: as §1, §2, §3, §4

[5] = system: Echinochloa crus-galli (Ecg); assay: Test D greenhouse paddy-water test in rice; conditions: 21 days, 0-100 scale
From the text: as §1, §2, §3, §4

Scirpus mucronatus (Sm) = assay: Test D greenhouse paddy-water test in rice; conditions: 21 days, 0-100 scale
From the text: as §1, §2, §3, §4

[6] = system: Leptochloa fascicularis (Li); assay: Test D greenhouse paddy-water test in rice; conditions: 21 days, 0-100 scale
From the text: as §1, §2, §3, §4

Cyperus difformis (Cd) = assay: Test D greenhouse paddy-water test in rice; conditions: 21 days, 0-100 scale
From the text: as §1, §2, §3, §4

[7] = system: downy brome (Bromus tectorum); assay: Test C postemergence
Procedure, shortened: (§5)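 Seeds are planted and treated before emergence; for the postemergence test, plants at 1- to 4-leaf stage (2–18 cm) receive the same formulation, a solvent blend containing surfactant. Plants stay in the greenhouse 12–14 days, then response is scored visually from 0 (none) to 100 (complete control).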

[8] = system: blackgrass (Alopecurus myosuroides); assay: Test C postemergence
Procedure, shortened: as §5

[9] = Rate 125 g/ha, scale 0 to 100, 0 no effect, 100 complete control
[10] = Rate 250 g/ha, scale 0 to 100 (0 no effect, 100 complete control)
[11] = Rate 500 g/ha, scale 0 to 100 (0 no effect, 100 complete control)

CC(C)(C)c1ccn(C2SCN(c3cccc(C(F)(F)F)c3)C2=O)n1 (centres unmarked) [Compound 1]
Obs. (observed effect) Mv ([1]; 32 g/ha alone): 100 | Obs. (observed effect) Mv ([1]; 64 g/ha alone): 100 | Obs. (observed effect) Mv ([1]; 125 g/ha alone): 100 | Obs. (observed effect) Mv ([1]; 250 g/ha alone): 100 | Obs. (observed effect) Mv ([1]; 500 g/ha alone): 100 | Obs. (observed effect) Ap ([2]; 32 g/ha alone): 100 | Obs. (observed effect) Ap ([2]; 64 g/ha alone): 100 | Obs. (observed effect) Ap ([2]; 125 g/ha alone): 100 | Obs. (observed effect) Ap ([2]; 250 g/ha alone): 100 | Obs. (observed effect) Ap ([2]; 500 g/ha alone): 100 | Obs. (observed effect) Oss ([3]; 32 g/ha alone): 40 | Obs. (observed effect) Oss ([3]; 64 g/ha alone): 40 | Obs. (observed effect) Oss ([3]; 125 g/ha alone): 70 | Obs. (observed effect) Oss ([3]; 250 g/ha alone): 100 | Obs. (observed effect) Oss ([3]; 500 g/ha alone): 100 | Obs. (observed effect) Aa (Ammania auriculata (Aa); 32 g/ha alone): 85 | Obs. (observed effect) Aa (Ammania auriculata (Aa); 64 g/ha alone): 95 | Obs. (observed effect) Aa (Ammania auriculata (Aa); 125 g/ha alone): 100 | Obs. (observed effect) Aa (Ammania auriculata (Aa); 250 g/ha alone): 100 | Obs. (observed effect) Aa (Ammania auriculata (Aa); 500 g/ha alone): 100 | Obs. (observed effect) Ost ([4]; 32 g/ha alone): 15 | Obs. (observed effect) Ost ([4]; 64 g/ha alone): 0 | Obs. (observed effect) Ost ([4]; 125 g/ha alone): 0 | Obs. (observed effect) Ost ([4]; 250 g/ha alone): 20 | Obs. (observed effect) Ost ([4]; 500 g/ha alone): 60 | Obs. (observed effect) Ecg ([5]; 32 g/ha alone): 0 | Obs. (observed effect) Ecg ([5]; 64 g/ha alone): 85 | Obs. (observed effect) Ecg ([5]; 125 g/ha alone): 100 | Obs. (observed effect) Ecg ([5]; 250 g/ha alone): 100 | Obs. (observed effect) Ecg ([5]; 500 g/ha alone): 100 | Obs. (observed effect) Sm (Scirpus mucronatus (Sm); 32 g/ha alone): 60 | Obs. (observed effect) Sm (Scirpus mucronatus (Sm); 64 g/ha alone): 100 | Obs. (observed effect) Sm (Scirpus mucronatus (Sm); 125 g/ha alone): 100 | Obs. (observed effect) Sm (Scirpus mucronatus (Sm); 250 g/ha alone): 100 | Obs. (observed effect) Sm (Scirpus mucronatus (Sm); 500 g/ha alone): 100 | Obs. (observed effect) Lf ([6]; 32 g/ha alone): 90 | Obs. (observed effect) Lf ([6]; 64 g/ha alone): 100 | Obs. (observed effect) Lf ([6]; 125 g/ha alone): 100 | Obs. (observed effect) Lf ([6]; 250 g/ha alone): 100 | Obs. (observed effect) Lf ([6]; 500 g/ha alone): 100 | Obs. (observed effect) Cd (Cyperus difformis (Cd); 32 g/ha alone): 100 | Obs. (observed effect) Cd (Cyperus difformis (Cd); 64 g/ha alone): 100 | Obs. (observed effect) Cd (Cyperus difformis (Cd); 125 g/ha alone): 100 | Obs. (observed effect) Cd (Cyperus difformis (Cd); 250 g/ha alone): 100 | Obs. (observed effect) Cd (Cyperus difformis (Cd); 500 g/ha alone): 100

CC1(c2ccn(C3OCN(c4cccc(OC(F)(F)F)c4)C3=O)n2)CC1 (centres unmarked) [Compound 69]
Plant response rating, Downy Brome ([7]; Rate 62 g/ha, scale 0 to 100): 0 | Plant response rating, Downy Brome [7, 9]: 0 | Plant response rating, Downy Brome [7, 10]: 0 | Plant response rating, Downy Brome [7, 11]: 0 | Plant response rating, Blackgrass ([8]; Rate 62 g/ha, scale 0 to 100): 0 | Plant response rating, Blackgrass [8, 9]: 0 | Plant response rating, Blackgrass [8, 10]: 0 | Plant response rating, Blackgrass [8, 11]: 20
